± gives the expanded uncertainty stated by the source.
Settings: Liquid, Capillary tube (Ostwald / Ubbelohde) method

CCCCCCCCCCCCCCCC [hexadecane]
viscosity (322.7 K, 1940 kPa): 1.885 ± 0.066 mPa·s | viscosity (323.7 K, 970 kPa): 1.857 ± 0.063 mPa·s | viscosity (323.7 K, 3000 kPa): 1.904 ± 0.065 mPa·s | viscosity (323.8 K, 1980 kPa): 1.878 ± 0.066 mPa·s | viscosity (323.8 K, 3910 kPa): 1.925 ± 0.066 mPa·s | viscosity (372.7 K, 990 kPa): 0.909 ± 0.031 mPa·s | viscosity (372.7 K, 1960 kPa): 0.922 ± 0.083 mPa·s | viscosity (372.8 K, 2970 kPa): 0.929 ± 0.031 mPa·s | viscosity (372.8 K, 3950 kPa): 0.947 ± 0.15 mPa·s | viscosity (373.9 K, 980 kPa): 0.896 ± 0.031 mPa·s | viscosity (373.9 K, 2000 kPa): 0.909 ± 0.083 mPa·s | viscosity (373.9 K, 2980 kPa): 0.915 ± 0.031 mPa·s | viscosity (373.9 K, 3900 kPa): 0.936 ± 0.17 mPa·s | viscosity (422.9 K, 1990 kPa): 0.554 ± 0.019 mPa·s | viscosity (422.9 K, 2970 kPa): 0.557 ± 0.019 mPa·s | viscosity (422.9 K, 3840 kPa): 0.568 ± 0.02 mPa·s | viscosity (471.9 K, 1000 kPa): 0.358 ± 0.013 mPa·s | viscosity (472 K, 2010 kPa): 0.363 ± 0.012 mPa·s | viscosity (472.1 K, 2910 kPa): 0.371 ± 0.013 mPa·s | viscosity (472.1 K, 3870 kPa): 0.374 ± 0.015 mPa·s | viscosity (473.7 K, 3990 kPa): 0.375 ± 0.02 mPa·s | viscosity (521.9 K, 970 kPa): 0.245 ± 0.008 mPa·s | viscosity (521.9 K, 1960 kPa): 0.254 ± 0.009 mPa·s | viscosity (521.9 K, 2950 kPa): 0.26 ± 0.009 mPa·s | viscosity (522 K, 3830 kPa): 0.267 ± 0.009 mPa·s | viscosity (572.1 K, 2930 kPa): 0.192 ± 0.007 mPa·s | viscosity (572.2 K, 2000 kPa): 0.187 ± 0.006 mPa·s | viscosity (572.2 K, 3850 kPa): 0.196 ± 0.007 mPa·s | viscosity (621.9 K, 2010 kPa): 0.131 ± 0.005 mPa·s | viscosity (622 K, 2890 kPa): 0.137 ± 0.005 mPa·s | viscosity (622.1 K, 3820 kPa): 0.142 ± 0.005 mPa·s | viscosity (623.2 K, 3990 kPa): 0.143 ± 0.005 mPa·s | viscosity (672.6 K, 3990 kPa): 0.104 ± 0.004 mPa·s | viscosity (673.2 K, 2000 kPa): 0.091 ± 0.003 mPa·s | viscosity (673.6 K, 3000 kPa): 0.097 ± 0.003 mPa·s

Reference: the NIST ThermoML archive (doi:10.1021/acs.jced.8b00930)
